Assay results taken from patent US10800788B2, “4-(aryl)-N-(3-alkoxyfuro[2,3-b]pyrazin-2-yl)-piperazine-1-carboxamide derivative and antiproliferative effect thereof” (Dongguk University Industry-Academic Cooperation Foundation, priority 2016, dated 2020).

Legend:
[1] = test system: UMRC2 (kidney cancer) cell line; experiment: Cell growth inhibition experiment (SRB), UMRC2; format: cell-based, human; details: Homo sapiens, UMRC2, 96 h, 96 hours incubation
In short: (§1)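 Cells in DMEM with 10% FBS were seeded at 2 to 3×10^3 cells/well, dosed the next day and incubated 96 hours at 37° C, 5% CO2. After TCA fixation and sulforhodamine B staining, OD530 was converted to viable cell number with a per-line standard curve. % survival is test over control; triplicate runs.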

[2] = test system: HEK293; experiment: Cell growth inhibition experiment (SRB), HEK293; format: cell-based, human; details: Homo sapiens, HEK293, 96 h, 96 hours incubation, read-out: IC50 (μM) for cancer cell line HEK293
In short: (§2)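 SRB read-out at 530 nm after 96 h compound exposure; cells plated at 2 to 3×10^3/well the day before treatment. TCA fixation, 0.4% SRB stain, Tris solubilisation. % survival = viable cells (test)/viable cells (control)×100, cell numbers from line-specific OD530 standard curves.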

[3] = test system: HN31 (head and neck cancer) cell line; experiment: Cell growth inhibition experiment (SRB), HN31; format: cell-based, human; details: Homo sapiens, 96 h, 96 hours incubation
In short: as §1

[4] = test system: PANC-1 (pancreatic cancer) cell line; experiment: Cell growth inhibition experiment (SRB), PANC-1; format: cell-based; details: Homo sapiens, PANC-1, 96 h, 96 hours incubation
In short: as §1

[5] = test system: SK-OV-3; experiment: Cell growth inhibition experiment (SRB), SK-OV-3; format: cell-based, human; details: Homo sapiens, SK-OV-3, 96 h, 96 hours incubation, read-out: IC50 (μM) for cancer cell line SK-OV-3
In short: as §2

[6] = test system: HUVEC; experiment: Cell growth inhibition experiment (SRB), HUVEC; format: cell-based, human; details: Homo sapiens, HUVEC, 96 h, 96 hours incubation, read-out: IC50 (μM) […]
In short: as §2

[7] = test system: HT29; experiment: Cell growth inhibition experiment (SRB), HT29; format: cell-based, human; details: Homo sapiens, HT-29, 96 h, 96 hours incubation, read-out: IC50 (μM) for cancer cell line HT29
In short: as §2

[8] = test system: MDA-MB-231 (breast cancer) cell line; experiment: Cell growth inhibition experiment (SRB), MDA-MB-231; format: cell-based, human; details: Homo sapiens, MDA-MB-231, 96 h, 96 hours incubation
In short: as §1

[9] = test system: A549; experiment: Cell growth inhibition experiment (SRB), A549; format: cell-based; details: Homo sapiens, A549, 96 h, 96 hours incubation, read-out: IC50 (μM) for cancer cell line A549
In short: as §2

| Compound | IC50 [1] [µM] | IC50 [2] [µM] | IC50 [3] [µM] | IC50 [4] [µM] | IC50 [5] [µM] | IC50 [6] [µM] | IC50 [7] [µM] | IC50 [8] [µM] | IC50 [9] [µM] |
| --- | --- | --- | --- | --- | --- | --- | --- | --- | --- |
| COc1cc(OC)cc(N2CCN(C(=O)Nc3nc4cc(Cl)oc4nc3OC)CC2)c1 [Example 41, N-(6-Chloro-3-methoxyfuro[2,3-b]pyrazin-2-yl)-4-(3,5-dimethoxyphenyl)piperazine-1-carboxamide] | 0.32 | 1.66 | 0.68 | 0.36 | < 2.5 | 1.73 | 1.87 | 0.51 | 1.87 |
| COc1cc(C)cc(N2CCN(C(=O)Nc3nc4cc(Cl)oc4nc3OC)CC2)c1 [Example 42, N-(6-Chloro-3-methoxyfuro[2,3-b]pyrazin-2-yl)-4-(3-methoxy-5-methylphenyl)piperazine-1-carboxamide] | 1.68 | 1.37 | 1.68 | 1.23 | < 2.5 | 1.47 | 1.87 | 0.36 | 1.87 |
| COc1cc(OCCN(C)C)cc(N2CCN(C(=O)Nc3nc4cc(Cl)oc4nc3OC)CC2)c1 [Example 44, N-(6-Chloro-3-methoxyfuro[2,3-b]pyrazin-2-yl)-4-(3-(2-(dimethylamino)ethoxy)-5-methoxyphenyl)piperazine-1-carboxamide] | 0.38 | 0.71 | 0.53 | 0.61 | < 2.5 | 0.66 | 0.87 | 0.43 | 0.36 |
| COc1nc2oc(Cl)cc2nc1NC(=O)N1CCN(c2cc(C)cc(C)c2)CC1 [Example 45, N-(6-Chloro-3-methoxyfuro[2,3-b]pyrazin-2-yl)-4-(3,5-dimethylphenyl)piperazine-1-carboxamide] | 0.32 | 2.01 | 1.68 | 0.68 | < 2.5 | < 2.5 | < 2.5 | 0.69 | 1.81 |
| COc1nc2oc(Cl)cc2nc1NC(=O)N1CCN(c2cc(C)cc(F)c2)CC1 [Example 46, N-(6-Chloro-3-methoxyfuro[2,3-b]pyrazin-2-yl)-4-(3-fluoro-5-methylphenyl)piperazine-1-carboxamide] | 1.35 | < 2.5 | 1.83 | 1.94 | < 2.5 | < 2.5 | < 2.5 | 1.68 | < 2.5 |
| COc1nc2oc(Cl)cc2nc1NC(=O)N1CCN(c2cc(F)cc(F)c2)CC1 [Example 47, N-(6-Chloro-3-methoxyfuro[2,3-b]pyrazin-2-yl)-4-(3,5-difluorophenyl)piperazine-1-carboxamide] | 0.68 | 0.63 | 0.68 | 0.41 | 1.93 | 1.87 | 1.92 | 0.43 | 0.57 |
| COc1nc2oc(Cl)cc2nc1NC(=O)N1CCN(c2cc(C(F)(F)F)cc(C(F)(F)F)c2)CC1 [Example 49, 4-(3,5-Bis(trifluoromethyl)phenyl)-N-(6-chloro-3-methoxy-furo[2,3-b]pyrazin-2-yl)piperazine-1-carboxamide] | 1.03 | < 2.5 | 1.17 | 1.68 | < 2.5 | < 2.5 | < 2.5 | 0.32 | < 2.5 |
| COc1nc2oc(Cl)cc2nc1NC(=O)N1CCN(c2cccc(OC(F)(F)F)c2)CC1 [Example 50, N-(6-Chloro-3-methoxy-furo[2,3-b]pyrazin-2-yl)-4-(3-(trifluoromethoxy)phenyl)piperazine-1-carboxamide] | < 2.5 | < 2.5 | < 2.5 | < 2.5 | < 2.5 | < 2.5 | < 2.5 | < 2.5 | < 2.5 |
| CCOc1nc2oc(Cl)cc2nc1NC(=O)N1CCN(c2cc(OC)cc(OC)c2)CC1 [Example 51, N-(6-Chloro-3-ethoxyfuro[2,3-b]pyrazin-2-yl)-4-(3,5-dimethoxyphenyl)piperazine-1-carboxamide] | 1.68 | < 2.5 | 1.45 | 1.58 | < 2.5 | < 2.5 | < 2.5 | 0.32 | < 2.5 |
| CCOc1nc2oc(Cl)cc2nc1NC(=O)N1CCN(c2cc(C)cc(OC)c2)CC1 [Example 52, N-(6-Chloro-3-ethoxyfuro[2,3-b]pyrazin-2-yl)-4-(3-methoxy-5-methylphenyl)piperazine-1-carboxamide] | 0.68 | 1.74 | 1.36 | 1.68 | < 2.5 | 1.62 | < 2.5 | 1.18 | 1.87 |
| CCOc1nc2oc(Cl)cc2nc1NC(=O)N1CCN(c2cc(F)cc(OC)c2)CC1 [Example 53, N-(6-Chloro-3-ethoxyfuro[2,3-b]pyrazin-2-yl)-4-(3-fluoro-5-methoxyphenyl)piperazine-1-carboxamide] | 0.32 | 1.98 | 0.45 | 0.56 | 1.91 | 1.88 | 1.67 | 0.48 | 1.68 |
| CCOc1nc2oc(Cl)cc2nc1NC(=O)N1CCN(c2cc(OC)cc(OCCN(C)C)c2)CC1 [Example 54, N-(6-Chloro-3-ethoxyfuro[2,3-b]pyrazin-2-yl)-4-(3-(2-(dimethylamino)ethoxy)-5-methoxyphenyl)piperazine-1-carboxamide] | 1.32 | 1.65 | 1.78 | 1.88 | < 2.5 | 1.75 | < 2.5 | 1.68 | 1.86 |
| CCOc1nc2oc(Cl)cc2nc1NC(=O)N1CCN(c2cc(C)cc(C)c2)CC1 [Example 55, N-(6-Chloro-3-ethoxyfuro[2,3-b]pyrazin-2-yl)-4-(3,5-dimethylphenyl)piperazine-1-carboxamide] | 0.68 | < 2.5 | 1.75 | 1.68 | < 2.5 | < 2.5 | < 2.5 | 0.32 | < 2.5 |
| CCOc1nc2oc(Cl)cc2nc1NC(=O)N1CCN(c2cc(C)cc(F)c2)CC1 [Example 56, N-(6-Chloro-3-ethoxyfuro[2,3-b]pyrazin-2-yl)-4-(3-fluoro-5-methylphenyl)piperazine-1-carboxamide] | 0.87 | < 2.5 | 1.75 | 1.68 | < 2.5 | < 2.5 | < 2.5 | 0.36 | < 2.5 |
| CCOc1nc2oc(Cl)cc2nc1NC(=O)N1CCN(c2cc(F)cc(F)c2)CC1 [Example 57, N-(6-Chloro-3-ethoxyfuro[2,3-b]pyrazin-2-yl)-4-(3,5-difluorophenyl)piperazine-1-carboxamide] | < 2.5 | < 2.5 | < 2.5 | < 2.5 | < 2.5 | < 2.5 | < 2.5 | < 2.5 | < 2.5 |
| CCOc1nc2oc(Cl)cc2nc1NC(=O)N1CCN(c2cc(F)cc(C(F)(F)F)c2)CC1 [Example 58, N-(6-Chloro-3-ethoxyfuro[2,3-b]pyrazin-2-yl)-4-(3-fluoro-5-(trifluoromethyl)phenyl)piperazine-1-carboxamide] | < 2.5 | < 2.5 | < 2.5 | < 2.5 | < 2.5 | < 2.5 | < 2.5 | < 2.5 | < 2.5 |
| CCOc1nc2oc(Cl)cc2nc1NC(=O)N1CCN(c2cc(C(F)(F)F)cc(C(F)(F)F)c2)CC1 [Example 59, 4-(3,5-Bis(trifluoromethyl)phenyl)-N-(6-chloro-3-ethoxyfuro[2,3-b]pyrazin-2-yl)piperazine-1-carboxamide] | 1.87 | < 2.5 | < 2.5 | 1.98 | < 2.5 | < 2.5 | < 2.5 | 1.68 | < 2.5 |
